Source: ChEMBL document CHEMBL3885881, “DrugMatrix”

Species on record: Rattus norvegicus
Test: DrugMatrix - Regimen: Daily Repeat
Assay type: toxicity, organism-based, Sprague-Dawley
Parameters: regimen Daily Repeat, gender Male, age 6-8 weeks
Settings: in vivo, po, 1169 mg/kg, route oral GAVAGE, dose level High, vehicle .5 % CMC; for ABSOLUTE BASOPHIL / ABSOLUTE EOSINOPHIL / ABSOLUTE LYMPHOCYTE / ABSOLUTE MONOCYTE / ABSOLUTE SEGMENTED NEUTROPHIL / BASOPHIL / EOSINOPHIL / ERYTHROCYTE COUNT / HEMATOCRIT / HEMOGLOBIN / LEUKOCYTE COUNT / LYMPHOCYTE / MEAN CORPUSCULAR HEMOGLOBIN / MEAN CORPUSCULAR HEMOGLOBIN CONCENTRATION / MEAN CORPUSCULAR VOLUME / MONOCYTE / NEUTROPHIL / NUCLEATED RED BLOOD CELLS / PLATELET COUNT: tissue Blood; for ALANINE AMINOTRANSFERASE / ALBUMIN / ALKALINE PHOSPHATASE / ASPARTATE AMINOTRANSFERASE / BLOOD UREA NITROGEN / CARBON DIOXIDE / CHLORIDE / CHOLESTEROL / CREATINE PHOSPHOKINASE / CREATININE / LACTATE DEHYDROGENASE / LIPASE / PHOSPHORUS / SODIUM / TOTAL BILIRUBIN / TOTAL PROTEIN / URIC ACID: tissue Plasma

Nc1nc(O)c2ncn(COC(CO)CO)c2n1 [GANCICLOVIR]
ABSOLUTE BASOPHIL (72 h, time 3 day): 0 CELLS/uL | ABSOLUTE EOSINOPHIL (72 h, time 3 day): 180.33 CELLS/uL | ABSOLUTE LYMPHOCYTE (72 h, time 3 day): 12632.33 CELLS/uL | ABSOLUTE MONOCYTE (72 h, time 3 day): 432 CELLS/uL | ABSOLUTE SEGMENTED NEUTROPHIL (72 h, time 3 day): 1155.33 CELLS/uL | BASOPHIL (72 h, time 3 day): 0% | EOSINOPHIL (72 h, time 3 day): 1.67% | ERYTHROCYTE COUNT (72 h, time 3 day): 5.52 x10E6/uL | HEMATOCRIT (72 h, time 3 day): 33.9% | HEMOGLOBIN (72 h, time 3 day): 12.9 G/DL | LEUKOCYTE COUNT (72 h, time 3 day): 14.4 x10E3/uL | LYMPHOCYTE (72 h, time 3 day): 87% | MEAN CORPUSCULAR HEMOGLOBIN (72 h, time 3 day): 23.43 pg | MEAN CORPUSCULAR HEMOGLOBIN CONCENTRATION (72 h, time 3 day): 38.07 G/DL | MEAN CORPUSCULAR VOLUME (72 h, time 3 day): 61.57 fL | MONOCYTE (72 h, time 3 day): 3% | NEUTROPHIL (72 h, time 3 day): 8.33% | NUCLEATED RED BLOOD CELLS (72 h, time 3 day): 0.33 /100WBC | PLATELET COUNT (72 h, time 3 day): 1439 x10E3/uL | ALANINE AMINOTRANSFERASE (72 h, time 3 day): 45.33 u/L | ALBUMIN (72 h, time 3 day): 4.3 G/DL | ALKALINE PHOSPHATASE (72 h, time 3 day): 313.33 u/L | ASPARTATE AMINOTRANSFERASE (72 h, time 3 day): 76 u/L | BLOOD UREA NITROGEN (72 h, time 3 day): 19 mg/dL | CARBON DIOXIDE (72 h, time 3 day): 27.33 mmol/L | CHLORIDE (72 h, time 3 day): 103.67 MEQ/L | CHOLESTEROL (72 h, time 3 day): 79.67 mg/dL | CREATINE PHOSPHOKINASE (72 h, time 3 day): 222.33 u/L | CREATININE (72 h, time 3 day): 0.23 mg/dL | LACTATE DEHYDROGENASE (72 h, time 3 day): 239 u/L | LIPASE (72 h, time 3 day): 9 u/L | PHOSPHORUS (72 h, time 3 day): 12.3 mg/dL | SODIUM (72 h, time 3 day): 145.57 MEQ/L | TOTAL BILIRUBIN (72 h, time 3 day): 0.2 mg/dL | TOTAL PROTEIN (72 h, time 3 day): 5.93 G/DL | URIC ACID (72 h, time 3 day): 1.27 mg/dL | ABSOLUTE BASOPHIL (120 h, time 5 day): 0 CELLS/uL | ABSOLUTE EOSINOPHIL (120 h, time 5 day): 164.33 CELLS/uL | ABSOLUTE LYMPHOCYTE (120 h, time 5 day): 13318 CELLS/uL | ABSOLUTE MONOCYTE (120 h, time 5 day): 365.67 CELLS/uL | ABSOLUTE SEGMENTED NEUTROPHIL (120 h, time 5 day): 1652 CELLS/uL | BASOPHIL (120 h, time 5 day): 0% | EOSINOPHIL (120 h, time 5 day): 1% | ERYTHROCYTE COUNT (120 h, time 5 day): 5.49 x10E6/uL | HEMATOCRIT (120 h, time 5 day): 34.33% | HEMOGLOBIN (120 h, time 5 day): 13.13 G/DL | LEUKOCYTE COUNT (120 h, time 5 day): 15.5 x10E3/uL | LYMPHOCYTE (120 h, time 5 day): 86% | MEAN CORPUSCULAR HEMOGLOBIN (120 h, time 5 day): 23.93 pg | MEAN CORPUSCULAR HEMOGLOBIN CONCENTRATION (120 h, time 5 day): 38.27 G/DL | MEAN CORPUSCULAR VOLUME (120 h, time 5 day): 62.6 fL | MONOCYTE (120 h, time 5 day): 2.33% | NEUTROPHIL (120 h, time 5 day): 10.67% | NUCLEATED RED BLOOD CELLS (120 h, time 5 day): 0.33 /100WBC | PLATELET COUNT (120 h, time 5 day): 1216.67 x10E3/uL | ALANINE AMINOTRANSFERASE (120 h, time 5 day): 42.33 u/L | ALBUMIN (120 h, time 5 day): 4.2 G/DL | ALKALINE PHOSPHATASE (120 h, time 5 day): 345.33 u/L | ASPARTATE AMINOTRANSFERASE (120 h, time 5 day): 78.67 u/L | BLOOD UREA NITROGEN (120 h, time 5 day): 19.67 mg/dL | CARBON DIOXIDE (120 h, time 5 day): 29.33 mmol/L | CHLORIDE (120 h, time 5 day): 102.33 MEQ/L | CHOLESTEROL (120 h, time 5 day): 65.33 mg/dL | CREATINE PHOSPHOKINASE (120 h, time 5 day): 220 u/L | CREATININE (120 h, time 5 day): 0.18 mg/dL | LACTATE DEHYDROGENASE (120 h, time 5 day): 181 u/L | LIPASE (120 h, time 5 day): 8.67 u/L | PHOSPHORUS (120 h, time 5 day): 11.73 mg/dL | SODIUM (120 h, time 5 day): 145.77 MEQ/L | TOTAL BILIRUBIN (120 h, time 5 day): 0.13 mg/dL | TOTAL PROTEIN (120 h, time 5 day): 5.9 G/DL | URIC ACID (120 h, time 5 day): 1.43 mg/dL
